Experimental data: article PMC5893419 (Bioorganic & medicinal chemistry letters, 2018)
Values after ≈ are worked out from the molar mass of the structure shown.

Legend:
Staphylococcus spp. = test: Antistaphylococcal activity, summary of broth microdilution MICs; assay type: cell-based
MRSA COL = test: microbe, parasite or virus in culture; conditions: Staphylococcus aureus, 20 h
Micrococcus luteus SK58 = test: microbe, parasite or virus in culture; assay type: cell-based
[1] = test system: methicillin-resistant Staphylococcus aureus (MRSA); conditions: in vitro growth of MRSA; cited from earlier work
[2] = test system: VAN-resistant S. aureus (VRSA); conditions: against VRSA; cited from earlier work
[3] = range over staphylococcal strains of Table 1
[4] = range over staphylococcal strains, converted from μM

Structure (SMILES)	MIC range, antistaphylococcal activity (Staphylococcus spp.; [3])	MIC range, antistaphylococcal activity (Staphylococcus spp.; [4])	further results
CCCCCCCSSC(=S)N(CC)CC [1i]	2 to 4 µM	0.6 to 1.2 µg/mL	
CN[C@H](CC(C)C)C(=O)N[C@H]1C(=O)N[C@@H](CC(N)=O)C(=O)N[C@H]2C(=O)N[C@H]3C(=O)N[C@H](C(=O)N[C@H](C(=O)O)c4cc(O)cc(O)c4-c4cc3ccc4O)[C@H](O)c3ccc(c(Cl)c3)Oc3cc2cc(c3O[C@@H]2O[C@H](CO)[C@@H](O)[C@H](O)[C@H]2O[C@H]2C[C@](C)(N)[C@H](O)[C@H](C)O2)Oc2ccc(cc2Cl)[C@H]1O [vancomycin]			MIC (MRSA COL): 2 µg/mL (≈ 1.38 µM)
CCCCCCCCSSC(=S)N(CC)CC [1j, 1-[(diethylcarbamothioyl)disulfanyl]octane]	2 to 4 µM	0.6 to 1.2 µg/mL	MIC (Micrococcus luteus SK58): > 32 µM
CCN(CC)C(=S)SSC(=S)N(CC)CC [disulfiram]			minimum inhibitory concentration (MIC) range [1]: 4 to 32 µg/mL; interaction with vancomycin (VAN) [2]: synergism
